Measurements taken from US4719220A, “15(R)-5-fluoroprostacyclins, pharmaceutical compositions and anti-thrombotic methods of use thereof” (G. D. Searle & Co., priority 1986, dated 1988).
Structures can show the parent of a compound that is named as a salt.

Experiments:
mean arterial pressure [1] = assay: Hexamethonium Rat hypotensive activity (spontaneously hypertensive rats); format: in vivo; details: iv bolus
Description: Hexamethonium Rat (Duration)
Spontaneously hypertensive rats (300-400 g.) are anesthetized with 100 mg/kg barbital/25 mg/kg pentobarbital ip. The jugular vein and carotid artery are then cannulated with polyethylene-50 tubing (for drug administration and blood pressure measurement, respectively). A tracheotomy tube is inserted and animals breathe 100% O2 spontaneously. Body temperature is maintained at 37° C. with a thermister probe and heat lamp. Rats are then dosed with 1 mg/kg hexamethonium, iv bolus. After a 10-minute stabilization period, animals are dosed with compound. All compounds are dissolved in either glycine buffer or saline and given in a volume of 1 ml kg. Approximate ED50 doses are administered iv bolus and mean arterial pressure (MAP) is recorded every 30 seconds for 5 minutes, then every minute for a 15-20 minute period or until pressure returns to baseline. Changes in MAP (compared to pre-treatment values) are analyzed with a paired t-test.

[2] = test system: ADP-Thrombocytopenia (platelet numbers); assay: In vivo ADP-thrombocytopenia; set-up: species or system rat; details: rats; for In vivo (ADP-Thrombocytopenia) ED50: Table I, infusion right jugular vein five minutes, ADP 0.5 mg/kg; for Anti-Aggregatory in vivo (ADP-Thrombocytopenia) ED50: Table II
Description: In vivo ADP-thrombocytopenia
Vehicle/compound in saline is infused for five minutes in the right jugular vein of rats (400-500 g) anesthetized with pentobarbital. Adenosine diphosphate (0.5 mg/kg) in saline is immediately infused for one minute in the left jugular vein. Blood samples are drawn (1:10 into 3.8% citrate) and platelets counted on a Coulter counter and platelet numbers in treated animals are compared to controls. The ED50 (effectiVe dose in 50% of treated animals--μg/kg/minute) for compound activity is calculated from linear regression.

[3] = test system: ADP-induced platelet aggregation; assay: In vitro ADP aggregation (platelet-rich plasma); format: cell-based; details: Table I; rat platelet-rich plasma, ADP 1-2 uM
Description: Rationale: The changes in optical density resulting from ADP-stimulation of platelet-rich plasma is used to identify compounds which inhibit or reverse platelet activation.
1. Platelet-rich plasma (PRP) is obtained from citrated whole rat blood.
2. Compound solutions are prepared at the initial screening dose of 1×1O^-4 M.
3. The prostacyclin (PGI2) standard is prepared in 0.lM NaOH-glycine (pH 10.0) over a range of 10^-9 -10^-8 M.
4. ADP in saline is added to PRP over a range of 1-2 uM to determine a concentration eliciting maximum aggregation within one minute.
5. PRP containing standard or test compound is preincubated for 1 minute and then stimulated with ADP. Vehicle controls are tested simultaneously.
6. The aggregation wave generated is monitored until the reversal phase is observed.
7. Platelet aggregation is quantified as the units of depth between the baseline and maximum depth.
8. Dose-response curves are generated for percent inhibition of ADP-induced platelet aggregation.
9. In vitro activity of the compounds screened is assessed by comparison of IC50 (M) with that of PGI2.

mean arterial pressure [4] = assay: Hypotensive Activity in Normotensive Rats; format: in vivo, normotensive Sprague-Dawley rats; details: Table II; for ED (25 mm Hg): Rattus norvegicus, iv, bolus i.v., dose lowering pressure 25 mm Hg, read-out: Blood Pressure ED25; for Therapeutic Index (Blood Pressure ED25 / Anti-Aggregatory): ED25 blood pressure over ED50 ADP-thrombocytopenia
Description: Hypotensive Activity in Normotensive Rats.
Normotensive Sprague-Dawley rats (weighing 400 to 500 g) are anesthetized wrth 100 mg/kg barbital/25 mg/kg pentobarbital intraperitoneally. The jugular vein and carotid artery are then cannulated with polyethylene-50 tubing (for drug administration and blood pressure measurement, respectively). A tracheotomy tube is inserted and animals breath 100% O2 spontaneously.
Also, body temperature is maintained at 37° C. with a thermister probe and heat lamp. After a 10 to 15 minute stabilization period, bolus i.v. injections of compound are given and responses (decrease in mean arterial pressure in mm Hg) are recorded. A linear regression analysis is then performed on the data to yield the following information:
EDO --threshold dose or dose at which an effect is first observed.
ED50 --the dose which causes 50% of the maximal response slope of the regression line in mm Hg.
When blood pressure lowering effects are minimal, an ED50 cannot be determined and, instead, an ED25 (dose which lowers the maximal pressure 25 mm Hg) is calculated.

[5] = test system: mean blood pressure / platelet aggregation; details: sodium salts, cited from earlier work; for ratio of blood pressure lowering activity and platelet aggregation inhibiting activity: dose for 20% lowering of mean blood pressure / minimum concentration for 50% inhibition of aggregation, PGI2 = 1; for platelet aggregation inhibition in comparison with blood pressure lowering, compared to PGI2: EP Publication No. 0054795
blood pressure = details: U.S. Pat. No. 4,178,367; cited from earlier work

In the case of `O=C(O)CCC/C(F)=C1/C[C@@H]2[C@@H](/C=C/[C@@H](O)C3CCCC3)[C@H](O)C[C@@H]2O1` [(5F,15S)], the “Blood Pressure Hexamethonium Rat, Blood Pressure/dose (decrease)” value (mean arterial pressure [1]; 10 μg/kg) is reported as -104 mm/Hg, the “In vivo (ADP-Thrombocytopenia) ED50” value [2] is reported as 0.87 µg/kg/min and the IC50 [3] is reported as 11 nM.
For `O=C(O)CCC[C@H](F)C1=C[C@@H]2[C@@H](/C=C/[C@H](O)C3CCCC3)[C@H](O)C[C@@H]2O1` [(5S,15R), 15-cyclopentyl-6,9α-Epoxy-5S-fluoro-11α, 15R-dihydroxy-16,17,18,19,20-pentanorprosta-6,13E-dien-1-oic acid, sodium salt], the “Blood Pressure Hexamethonium Rat, Blood Pressure/dose (decrease)” value (mean arterial pressure [1]; 100 μg/kg) was “Inactive”, the “In vivo (ADP-Thrombocytopenia) ED50” value [2] was 3.3 µg/kg/min and the IC50 [3] was 8600 nM.
For `O=C(O)CCC[C@@H](F)C1=C[C@@H]2[C@@H](/C=C/[C@H](O)C3CCCC3)[C@H](O)C[C@@H]2O1` [(5R,15R), 15-cyclopentyl-6,9α-Epoxy-5R-fluoro-11α,15R-dihydroxy-16,17,18,19,20-pentanorprosta-6,13E-dien-1-oic acid, sodium salt], the ED (25 mm Hg) (mean arterial pressure [4]) was 0.501 mg/kg, the “Therapeutic Index (Blood Pressure ED25 / Anti-Aggregatory)” value (mean arterial pressure [4]) was 217.8 and the “In vivo (ADP-Thrombocytopenia) ED50” value [2] was 2.3 µg/kg/min. For the same compound, the “Anti-Aggregatory in vivo (ADP-Thrombocytopenia) ED50” value [2] was 2.3 µg/kg/min and the IC50 [3] was 600 nM.
For `CCCCC[C@H](O)/C=C/[C@@H]1[C@H]2C/C(=C/CCCC(=O)O)O[C@H]2C[C@H]1O` [PGI2, (5Z)-9-deoxy-6,9α-epoxy-Δ^5 -PGF1], the “ratio of blood pressure lowering activity and platelet aggregation inhibiting activity” value [5] is given as 1.
For `O=C(O)CCC[C@@H](F)C1=C[C@@H]2[C@@H](/C=C/[C@@H](O)C3CCCC3)[C@H](O)C[C@@H]2O1` [(5R,15S)], the ED (25 mm Hg) (mean arterial pressure [4]) was 0.0026 mg/kg, the “Therapeutic Index (Blood Pressure ED25 / Anti-Aggregatory)” value (mean arterial pressure [4]) was 0.87 and the “Blood Pressure Hexamethonium Rat, Blood Pressure/dose (decrease)” value (mean arterial pressure [1]; 10 μg/kg) was -47 mm/Hg. For the same compound, the “In vivo (ADP-Thrombocytopenia) ED50” value [2] was 3.0 µg/kg/min, the “Anti-Aggregatory in vivo (ADP-Thrombocytopenia) ED50” value [2] was 3.0 µg/kg/min and the IC50 [3] was 190 nM.
In the case of `O=C(O)CCC/C=C1/C[C@@H]2[C@@H](/C=C/[C@H](O)C3CCCC3)[C@H](O)C[C@@H]2O1` [(15R)], the “Blood Pressure Hexamethonium Rat, Blood Pressure/dose (decrease)” value (mean arterial pressure [1]; 100 μg/kg) is reported as -76 mm/Hg and the IC50 [3] is reported as 630 nM.
For `CCCC1CCC([C@H](O)/C=C/[C@@H]2[C@H]3C/C(=C/CCCC(=O)OC)O[C@H]3C[C@H]2O)C1` (stereo partly drawn) [(5Z, 13E)-(9α,11α,15S)-6,9-epoxy-11,15-dihydroxy-15-(3 propyl)cyclopentyl-16, 17, 18, 19, 20-pentanorprosta-5,13-dienoic acid methyl ester], the “blood pressure lowering activity compared to a 15R derivative” value (blood pressure) is listed as “greater blood pressure lowering activity”.
For `O=C(O)CCC/C=C1/C[C@@H]2[C@@H](/C=C/[C@@H](O)C3CCCC3)[C@H](O)C[C@@H]2O1` [(15S)], the “Blood Pressure Hexamethonium Rat, Blood Pressure/dose (decrease)” value (mean arterial pressure [1]; 0.2 μg/kg) was -83 mm/Hg and the IC50 [3] was 76 nM.
For `CCCCCC(O)C=CC1C(O)CC2OC(=CCCCC(=O)[O-])C(F)C21.[Na+]` (stereo not drawn) [7-fluoro derivative, 7-fluoro-PGI2 sodium salt], the “ratio of blood pressure lowering activity and platelet aggregation inhibiting activity” value [5] is listed as 32 and the “platelet aggregation inhibition in comparison with blood pressure lowering, compared to PGI2” value [5] is listed as “stronger activities with respect to the inhibition of platelet aggregation in comparison with their blood pressure lowering activities compared to PGI2”.
In the case of `CCCCCC(O)C=CC1C(O)CC2OC(=C(Cl)CCCC(=O)[O-])CC21.[Na+]` (stereo not drawn) [5-chloro derivative, 5-chloro-PGI2 sodium salt], the “ratio of blood pressure lowering activity and platelet aggregation inhibiting activity” value [5] is listed as 4 and the “platelet aggregation inhibition in comparison with blood pressure lowering, compared to PGI2” value [5] is listed as “stronger activities with respect to the inhibition of platelet aggregation in comparison with their blood pressure lowering activities compared to PGI2”.
In the case of `O=C(O)CCC[C@H](F)C1=C[C@@H]2[C@@H](/C=C/[C@@H](O)C3CCCC3)[C@H](O)C[C@@H]2O1` [(5S,15S)], the “Blood Pressure Hexamethonium Rat, Blood Pressure/dose (decrease)” value (mean arterial pressure [1]; 10 μg/kg) is reported as -42 mm/Hg, the “In vivo (ADP-Thrombocytopenia) ED50” value [2] is reported as 2.3 µg/kg/min and the IC50 [3] is reported as 100 nM.
